According to US7122570B2, “Tetrahydrocarbazol derivatives as ligands for G-protein-coupled receptors (GPCR)” (Zentaris AG, priority 2001, dated 2006):

Experiments:
hGnRH-Receptor = target: T1, hGnRH-Receptor (Homo sapiens, UniProt P30968); experiment: GnRH receptor assay: competition binding with 125I-labeled buserelin on cell membranes; details: competition with 125I-buserelin
T1 construct: expressed in transfected cells; host or cells: CHO-3 cells (Schmid et al., J. Biol. Chem. 275 (2000), 9193-9200), membrane preparation
T1 sequence (P30968 1-328): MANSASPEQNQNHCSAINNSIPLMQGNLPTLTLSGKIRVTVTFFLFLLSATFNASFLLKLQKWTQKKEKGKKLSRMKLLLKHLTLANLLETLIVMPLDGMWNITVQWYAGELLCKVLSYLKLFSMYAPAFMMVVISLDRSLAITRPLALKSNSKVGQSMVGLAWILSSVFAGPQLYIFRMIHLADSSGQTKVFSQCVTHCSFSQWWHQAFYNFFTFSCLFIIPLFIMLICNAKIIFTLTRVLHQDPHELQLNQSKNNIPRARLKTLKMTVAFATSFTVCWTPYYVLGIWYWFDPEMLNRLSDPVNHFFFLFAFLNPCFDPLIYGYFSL
Protocol: Buserelin is ordered from Welding (Frankfurt/Main, Germany). The compound is labeled with ^125I by use of the chloramine T-method and Na^125I (4000 Ci/mmol; Amersham-Buchler, Brunswick, Germany). The labeled substance is purified by reverse phase HPLC on a Spherisorb ODS II column (250×4 mm, particle size 3 μm) by elution with 50% acetonitrile/0.15% trifluoroacetic acid at a flow rate of 0.5 ml/minute. The specific activity is 2000 Ci/mmol.
Alpha T3-1 cells (Bilezikjian et al., Mol. Endocrinol 5 (1991), 347–355) are cultivated in DMEM medium (Gibco-BRL, Eggenstein-Leopoldshafen, Germany) with penicillin (100 I.U./ml), streptomycin (0.1 mg/ml) and glutamine (0.01 mol/l) and 10% fetal calf serum (FCS; PAA Laboratories, Coelbe, Germany) on plastic tissue culture plates (Nunc, 245×245×20 mm). CHO-3 cells (Schmid et al., J. Biol. Chem. 275 (2000), 9193–9200) are cultivated under identical conditions, apart from the fact that Ham's F12 medium (Gibco-BRL) is used.
Ten confluent cell culture plates are flushed twice with 50 ml of phosphate-buffered salt solution (PBS). The cells are harvested by scraping them off with a rubber scraper in 5 ml of PBS and sedimented by centrifuging in a laboratory centrifuge (Heraeus) at 800 rpm for 10 minutes. The cell pellet is resuspended in 5 ml of 0.25 mol/l of saccharose/0.01 mol/l of triethanolamine, pH 7.4. The cells are lysed by three cycles of freezing in dry ice/ethanol bath and thawing at room temperature. The lysate is centrifuged at 900 rpm for 10 minutes, and the sediment is discarded. The supernatant is centrifuged at 18,000 rpm in a Sorvall SS34 rotor for 30 minutes. The pellet (cell membranes) is suspended by Potters in 5 ml of assay buffer (0.25 mol/l of saccharose, 0.01 mol/l of triethanolamine, pH 7.5, 1 mg/ml of ovalbumin) and stored in 200 μl of aliquots at −20° C. The determination of protein is carried out according to the Bradford method (Anal. Biochem. 72 (1976), 248–254).
Binding studies for competition curves are performed as triplicates. A test sample contains 60 μl of cell membrane suspension (10 μg of protein for αT3-1 cells or 40 μg of protein for CHO3 cells), 20 μl of ^125I-labeled buserelin (100,000 Ipm per sample for competition curves and between 1,500 and 200,000 Ipm for saturation experiments) and 20 μl of test buffer or test compound solution. The test compounds are dissolved in distilled water or 50% ethanol. Serial dilutions (5×10^−6 mol/l to […]) are produced in test buffer. The unspecific binding is determined in the presence of excess unlabeled buserelin (10^−6 mol/1). The test samples are incubated for 30 minutes at room temperature. Bonded and free ligands are separated by filtration (Whatman GF/C-filter, 2.5 cm diameter) with use of an Amicon 10x collecting device and washed twice with 5 ml of 0.02 mol/l of Tris/HCl, pH 7.4. The filters are moistened with 0.3% polyethylenimine (Serva; Heidelberg, Germany) for 30 minutes to reduce the unspecific binding. The radioactivity that was held up by the filter is determined in a 5-channel gamma-counter (Wallac-LKB 1470 Wizard).
In the table below, the IC50 values that are obtained for the preferred compounds, as defined above, are indicated.

GnRH receptor = target: T2, GnRH receptor (Homo sapiens, UniProt P30968); experiment: Ca2+ release, human; assay type: cell-based; details: read-out: Ca^2+ Release Human IC50
T2 sequence (P30968 1-328): T1 sequence (P30968 1-328)

IC50 (hGnRH-Receptor) [µM]	IC50 (GnRH receptor) [µM]	Compound
0.9	5	CC(C)C(NC(=O)C1(NC(=O)C(Cc2ccccc2)c2ccccc2)CCc2[nH]c3ccccc3c2C1)C(=O)NC(CC(N)=O)C(N)=O [Compound 18, N-[[(3R)-2,3,4,9-Tetrahydro-3-[(1-oxo-2,3-diphenyl-propyl)amino]-1H-carbaol-3-yl]-carbonyl]-L-valyl-L-aspartamide]
2	1	CC[C@H](C)[C@H](NC(=O)CCc1ccccc1)C(=O)N[C@]1(C(=O)N[C@H](C(=O)N[C@@H](CC(N)=O)C(N)=O)C(C)C)CCc2[nH]c3ccccc3c2C1 [Compound 22, N-[[(3R)-2,3,4,9-Tetrahydro-3-[[(2S,3S)-3-methyl-1-oxo-2-[(1-oxo-3-phenylpropyl)amino]-pentyl]amino]-1H-carbazol-3-yl]carbonyl]-L-valyl-L-aspartamide]
0.3	1	CC[C@H](C)[C@H](NC(=O)OCc1ccccc1)C(=O)N[C@]1(C(=O)N[C@H](C(=O)Nc2ccc(C(N)=O)cc2)C(C)C)CCc2[nH]c3ccccc3c2C1 [Compound 45, Phenylmethyl [(1S,2S)-1-[[[(3R)-3-[[[(1S)-1-[[[4-(aminocarbonyl)phenyl]amino]carbonyl]-2-methylpropyl]amino]carbonyl]-2,3,4,9-tetrahydro-1H-carbazol-3-yl]amino]carbonyl]-2-methylbutyl]carbamate]
0.3	0.37	CC[C@H](C)[C@H](NC(=O)OCc1ccccc1)C(=O)N[C@]1(C(=O)N[C@H](C(N)=O)C(C)C)CCc2[nH]c3ccccc3c2C1 [Compound 58, Phenylmethyl [(1S,2S)-1-[[[(3R)-3-[[[(1S)-1-(aminocarbonyl)-2-methylpropyl]amino]-carbonyl]-2,3,4,9-tetrahydro-1H-carbazol-3-yl]-amino]carbonyl]-2-methylbutyl]carbamate]
1.7	1.5	CC[C@H](C)[C@H](NC(=O)[C@@]1(NC(=O)[C@@H](NC(=O)OCc2ccccc2)[C@@H](C)CC)CCc2[nH]c3ccccc3c2C1)C(N)=O [Compound 64, Phenylmethyl [(1S,2S)-1-[[[(3R)-3-[[[(1S,2S)-1-(aminocarbonyl)-2-methylbutyl]amino]-carbonyl]-2,3,4,9-tetrahydro-1H-carbazol-3-yl]-amino]carbonyl]-2-methylbutyl]carbamate]
2.4	2	CC(C)[C@H](NC(=O)[C@@]1(NC(=O)Cc2ccc(F)cc2)CCc2[nH]c3ccccc3c2C1)C(N)=O [Compound 91, (3R)-N-[(1S)-1-(Aminocarbonyl)-2-methyl-propyl]-3-[[(4-fluorophenyl)acetyl]amino]-2,3,4,9-tetrahydro-1H-carbazole-3-carboxamide]
4	3	CC(C)[C@H](NC(=O)[C@@]1(NC(=O)Cc2cccc(Br)c2)CCc2[nH]c3ccccc3c2C1)C(N)=O [Compound 96, (3R)-N-[(1S)-1-(Aminocarbonyl)-2-methyl-propyl]-3-[[(3-bromophenyl)acetyl]-amino]-2,3,4,9-tetrahydro-1H-carbazole-3-carboxamide]
0.076	0.25	CC[C@H](C)[C@H](NC(=O)OCc1ccccc1)C(=O)N[C@]1(C(=O)N[C@H](C(N)=O)C(C)C)CCc2[nH]c3c(OC)cccc3c2C1 [Compound 147a, Phenylmethyl [(1S,2S)-1-[[[(3R)-3-[[[(1S)-1-(aminocarbonyl)-2-methypropyl]amino]-carbonyl]-2,3,4,9-tetrahydro-8-methoxy-1H-carbazol-3-yl]amino]carbonyl]-2-methylbutyl]carbamate]
0.08	0.14	CC[C@H](C)[C@H](NC(=O)OCc1ccccc1)C(=O)N[C@]1(C(=O)N[C@H](C(N)=O)C(C)C)CCc2[nH]c3ccc(Cl)cc3c2C1 [Compound 148a, Phenylmethyl [(1S,2S)-1-[[[(3R)-3-[[[(1S)-1-(aminocarbonyl)-2-methylpropyl]amino]-carbonyl]-6-chloro-2,3,4,9-tetrahydro-1H-carbazol-3-yl]amino]carbonyl]-2-methylbutyl]carbamate]
0.11	0.28	CC[C@H](C)[C@H](NC(=O)OCc1ccccc1)C(=O)N[C@]1(C(=O)N[C@H](C(N)=O)C(C)C)CCc2[nH]c3c(C)cccc3c2C1 [Compound 150a, Phenylmethyl [(1S,2S)-1-[[[(3R)-3-[[[(1S)-1-(aminocarbonyl)-2-methylpropyl]amino]-carbonyl]-2,3,4,9-tetrahydro-8-methyl-1H-carbazol-3-yl]amino]carbonyl]-2-methylbutyl]carbamate]
6	6.5	CC(C)[C@H](NC(=O)[C@]1(NC(=O)Cc2c[nH]c3ccccc23)CCc2[nH]c3ccccc3c2C1)C(N)=O [Compound 164b, (3S)-N-[(1S)-1-(Aminocarbonyl)-2-methyl-propyl]-2,3,4,9-tetrahydro-3-[(1H-indol-3-yl-acetyl)amino]-1H-carbazole-3-carboxamide]
1	2.6	CC(C)[C@H](NC(=O)[C@@]1(NC(=O)Cc2ccc(Cl)cc2)CCc2[nH]c3ccccc3c2C1)C(N)=O [Compound 167a, (3R)-N-[(1S)-1-(Aminocarbonyl)-2-methyl-propyl]-3-[[(4-chlorophenyl)acetyl]amino]-2,3,4,9-tetrahydro-1H-carbazole-3-carboxamide]
8	1.8	COc1ccc(CC(=O)NC2(C(=O)N[C@H](C(N)=O)C(C)C)CCc3[nH]c4ccccc4c3C2)cc1 (stereo partly drawn) [Compound 175, N-[(1S)-1-(Aminocarbonyl)-2-methylpropyl]-2,3,4,9-tetrahydro-3-[[(4-methoxyphenyl)-acetyl]amino]-1H-carbazole-3-carboxamide]
0.7	3	CC[C@H](C)[C@H](NC(=O)OCc1ccccc1)C(=O)N[C@]1(C(=O)N2CCC[C@H]2C(N)=O)CCc2[nH]c3ccccc3c2C1 [Compound 181a, Phenylmethyl [(1S,2S)-1-[[[(3R)-3-[[(2S)-2-(aminocarbonyl)-1-pyrrolidinyl]carbonyl]-2,3,4,9-tetrahydro-1H-carbazol-3-yl]amino]-carbonyl]-2-methylbutyl]carbamate]
0.015	0.045	CC[C@H](C)[C@H](NC(=O)OCc1ccccc1)C(=O)N[C@]1(C(=O)N[C@H](C(N)=O)C(C)C)CCc2[nH]c3c(Cl)cc(Cl)cc3c2C1 [Compound 184a, Phenylmethyl [(1S,2S)-1-[[[(3R)-3-[[[(1S)-1-(aminocarbonyl)-2-methylpropyl]amino]-carbonyl]-6,8-dichloro-2,3,4,9-tetrahydro-1H-carbazol-3-yl]amino]carbonyl]-2-methylbutyl]-carbamate]

Compound	IC50 (hGnRH-Receptor) [µM]	IC50 (GnRH receptor) [µM]
CC(C)C(NC(=O)C1(NC(=O)Cc2ccc3ccccc3c2)CCc2[nH]c3ccccc3c2C1)C(N)=O [Compound 161b, (3S)-N-[(1S)-1-(Aminocarbonyl)-2-methyl-propyl]-2,3,4,9-tetrahydro-3-[(2-naphthalenyl-acetyl)amino]-1H-carbazole-3-carboxamide]	3.7	3.6
